The source made the active and inactive calls.

Test [1] deals with T1, Insulin-degrading enzyme (Homo sapiens, UniProt P14735).
T1 sequence (P14735 whole entry): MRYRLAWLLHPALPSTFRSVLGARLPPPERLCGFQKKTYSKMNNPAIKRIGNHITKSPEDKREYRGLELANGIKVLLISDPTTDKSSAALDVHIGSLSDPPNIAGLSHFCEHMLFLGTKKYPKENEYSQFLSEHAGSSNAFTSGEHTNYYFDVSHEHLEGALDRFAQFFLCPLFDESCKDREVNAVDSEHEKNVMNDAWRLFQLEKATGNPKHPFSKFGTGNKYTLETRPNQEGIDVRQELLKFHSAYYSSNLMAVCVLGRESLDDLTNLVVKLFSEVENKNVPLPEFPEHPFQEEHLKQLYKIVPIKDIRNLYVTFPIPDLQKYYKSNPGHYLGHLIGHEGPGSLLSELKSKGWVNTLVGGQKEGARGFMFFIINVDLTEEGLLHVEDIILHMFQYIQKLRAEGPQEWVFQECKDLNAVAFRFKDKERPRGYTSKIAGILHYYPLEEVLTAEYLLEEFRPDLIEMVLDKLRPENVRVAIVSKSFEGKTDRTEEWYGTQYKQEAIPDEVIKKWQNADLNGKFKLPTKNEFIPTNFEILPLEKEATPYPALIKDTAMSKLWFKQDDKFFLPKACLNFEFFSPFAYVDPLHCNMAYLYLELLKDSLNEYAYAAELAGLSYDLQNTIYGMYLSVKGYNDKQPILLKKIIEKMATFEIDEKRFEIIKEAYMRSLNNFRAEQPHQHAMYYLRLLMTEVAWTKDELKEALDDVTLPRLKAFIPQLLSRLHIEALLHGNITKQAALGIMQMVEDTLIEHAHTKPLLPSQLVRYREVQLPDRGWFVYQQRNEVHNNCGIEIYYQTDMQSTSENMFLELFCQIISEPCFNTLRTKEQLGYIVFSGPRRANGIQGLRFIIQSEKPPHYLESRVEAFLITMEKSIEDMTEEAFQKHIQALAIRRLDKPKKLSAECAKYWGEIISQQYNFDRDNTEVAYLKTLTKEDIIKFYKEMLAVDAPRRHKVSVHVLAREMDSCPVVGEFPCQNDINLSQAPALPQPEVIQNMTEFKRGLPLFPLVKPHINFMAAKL
In words: activators of recombinant IDE enzyme, dose response, counter-screen for IDE activator project, biochemical, fluorescence polarization (AID 588681).

Test [2] addresses T1, Insulin-degrading enzyme. Put plainly: activators of endogenous IDE in HEK cells, dose response, cell-based, fluorescence polarization (AID 588439). In kind it is functional.
Test [3] relates to HEK293. Put plainly: optical interference in Abeta FP readout, dose response, artefact control for IDE activator project, biochemical, fluorescence polarization (AID 588442). The following applies: Homo sapiens. It is filed as functional, cell-based.
In test [4] the test system is HEK293. Put plainly: HEK cell cytotoxicity by LDH release, dose response, cytotoxicity control for IDE activator project, fluorescence, HEK cells (AID 588440).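 Further: cytotoxicity by LDH release measuring loss of membrane integrity.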 In kind it is functional, cell-based. The following applies: Homo sapiens.
Another test concerns the target T2, Phospholipase D1 (Homo sapiens, UniProt Q13393).
T2 sequence (Q13393 whole entry): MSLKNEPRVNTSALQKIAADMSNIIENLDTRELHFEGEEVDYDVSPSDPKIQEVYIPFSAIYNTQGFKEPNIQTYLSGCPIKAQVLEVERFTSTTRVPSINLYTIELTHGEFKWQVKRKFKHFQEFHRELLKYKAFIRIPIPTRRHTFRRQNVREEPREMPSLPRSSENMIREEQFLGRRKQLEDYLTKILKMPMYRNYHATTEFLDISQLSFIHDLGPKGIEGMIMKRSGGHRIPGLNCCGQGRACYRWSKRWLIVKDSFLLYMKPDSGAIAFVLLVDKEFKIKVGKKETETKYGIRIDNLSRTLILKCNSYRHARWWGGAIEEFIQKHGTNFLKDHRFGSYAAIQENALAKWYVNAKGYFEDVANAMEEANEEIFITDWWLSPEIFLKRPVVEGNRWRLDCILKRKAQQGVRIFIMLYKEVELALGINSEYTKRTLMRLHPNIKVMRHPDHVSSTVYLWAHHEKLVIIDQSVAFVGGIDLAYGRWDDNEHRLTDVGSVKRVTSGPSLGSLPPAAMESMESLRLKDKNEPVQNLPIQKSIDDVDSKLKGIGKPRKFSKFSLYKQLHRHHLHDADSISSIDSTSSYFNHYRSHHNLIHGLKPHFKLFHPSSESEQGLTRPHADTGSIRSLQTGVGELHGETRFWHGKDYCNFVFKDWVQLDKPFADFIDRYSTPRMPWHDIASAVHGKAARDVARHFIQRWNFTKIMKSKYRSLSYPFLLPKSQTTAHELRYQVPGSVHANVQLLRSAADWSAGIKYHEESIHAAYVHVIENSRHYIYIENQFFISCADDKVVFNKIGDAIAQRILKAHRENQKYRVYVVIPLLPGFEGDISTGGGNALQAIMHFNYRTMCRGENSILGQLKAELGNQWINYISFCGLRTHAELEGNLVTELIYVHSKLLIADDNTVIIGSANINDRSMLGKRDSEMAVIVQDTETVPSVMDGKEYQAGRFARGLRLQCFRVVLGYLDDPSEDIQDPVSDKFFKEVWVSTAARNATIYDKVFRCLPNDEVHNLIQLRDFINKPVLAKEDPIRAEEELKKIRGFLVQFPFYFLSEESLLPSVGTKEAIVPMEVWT
In words: PLD1 inhibitor potency in cells, dose response (AID 602151).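 Further: cellular PLD1 assay in Calu-1 cells stimulated with PMA.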 In kind it is functional.

The next test addresses Phospholipase D2 (Homo sapiens, UniProt O14939). In words: PLD2 inhibitor potency in cells, dose response (AID 602147).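 Further: cellular assay in HEK293 cells overexpressing GFP-tagged PLD2.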 It is filed as functional.

Phospholipase D2, sequence (O14939 whole entry): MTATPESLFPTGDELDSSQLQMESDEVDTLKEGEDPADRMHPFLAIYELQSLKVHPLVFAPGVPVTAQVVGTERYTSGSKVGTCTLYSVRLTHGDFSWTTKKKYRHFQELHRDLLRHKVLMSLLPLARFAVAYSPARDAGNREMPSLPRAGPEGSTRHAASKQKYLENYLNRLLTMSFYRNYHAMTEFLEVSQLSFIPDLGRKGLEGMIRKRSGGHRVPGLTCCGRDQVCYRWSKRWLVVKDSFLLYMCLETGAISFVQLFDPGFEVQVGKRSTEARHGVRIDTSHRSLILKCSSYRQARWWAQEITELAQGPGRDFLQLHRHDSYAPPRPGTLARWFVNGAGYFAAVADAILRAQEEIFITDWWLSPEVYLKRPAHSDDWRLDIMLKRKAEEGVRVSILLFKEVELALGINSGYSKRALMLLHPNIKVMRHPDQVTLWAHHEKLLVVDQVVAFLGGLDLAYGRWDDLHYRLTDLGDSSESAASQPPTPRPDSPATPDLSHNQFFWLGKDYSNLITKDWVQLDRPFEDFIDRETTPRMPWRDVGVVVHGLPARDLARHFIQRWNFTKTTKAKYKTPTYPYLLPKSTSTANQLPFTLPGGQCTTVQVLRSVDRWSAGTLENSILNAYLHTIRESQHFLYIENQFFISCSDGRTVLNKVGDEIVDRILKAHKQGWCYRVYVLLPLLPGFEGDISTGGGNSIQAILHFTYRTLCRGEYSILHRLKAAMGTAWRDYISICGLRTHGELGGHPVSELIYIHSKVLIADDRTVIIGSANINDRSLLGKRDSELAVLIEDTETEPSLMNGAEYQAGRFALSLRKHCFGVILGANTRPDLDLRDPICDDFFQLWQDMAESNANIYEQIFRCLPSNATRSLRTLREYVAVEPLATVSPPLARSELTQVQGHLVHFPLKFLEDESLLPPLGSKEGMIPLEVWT

Take `CN(C)CCCN(C(=O)CCSc1ccccc1)c1nc2cc3c(cc2s1)OCO3`: the EC50 on Insulin-degrading enzyme [1], on Insulin-degrading enzyme [2] and in the test on HEK293 [3] was > 54.7 µM (inactive) in each case. Besides, the IC50 in the test with HEK293 [4] is 33.9 µM (inactive).
Regarding `O=C(NCCN1CCC(n2nnc3ccccc32)CC1)c1ccc2ccccc2c1`, the IC50 at Phospholipase D1 was 2.7 µM (active); on Phospholipase D2, 1.75 µM (active).

Source of the values: ChEMBL document CHEMBL1201862, “PubChem BioAssay data set” (2004).
